The values below come from US6723735B1, “Imidazo-pyridine derivatives as ligands for GABA receptors” (Merck Sharp & Dohme Ltd., priority 1999, dated 2004).

Structures can show the parent of a compound that is named as a salt.

Broadly, the melting point is the temperature of the solid-liquid transition. In turn, `c1ccc(-c2cnc3c(c2)ncn3-c2cccc(-c3cccnc3)c2)cc1` [Example 5, 6-Phenyl-3-[3-(pyridin-3-yl)phenyl]-3H-imidazo[4,5-b]pyridine] returned a melting point of 179 to 180 °C. With `c1cncc(-c2cccc(-n3cnc4cc(-c5ccoc5)cnc43)c2)c1` [Example 1, 6-(Furan-3-yl)-3-[3-(pyridin-3-yl)phenyl]-3H-imidazo[4,5-b]pyridine] the figure was 191 to 192 °C; with `c1cc(-n2ccnc2)cc(-n2cnc3cc(-c4ccoc4)cnc32)c1` (as salt: oxalate) [Example 3, 6-(Furan-3-yl)-3-[3-(imidazol-1-yl)phenyl]-3H-imidazo[4,5-b]pyridine], 202 to 204 °C.
